Reference: ChEMBL document CHEMBL1201862, “PubChem BioAssay data set” (2004)
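96-well plates; 48 h exposure; 5 concentrations. Endpoints by linear interpolation between flanking doses. Not reached: highest tested concentration assigned. GI50 marks 50% less growth.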 Activity calls are given as the source filed them. No stated cut-off is given here; in the data, active = GI50 up to about 1.1 µM and inactive = higher.

Legend:
Test in all cases: NCI tumour cell line growth inhibition, 48 h
SF-268 = system: SF-268
HL-60 = system: HL-60
U-251 = system: U-251
NCI-H522 = system: NCI-H522
HCT-15 = system: HCT-15
LOX IMVI = system: LOX IMVI
KM12 = system: KM12
TK-10 = system: TK-10
NCI-H460 = system: NCI-H460
SK-OV-3 = system: SK-OV-3
COLO 205 = system: COLO 205
CCRF-CEM = system: CCRF-CEM
IGROV-1 = system: IGROV-1
SN12C = system: SN12C
786-0 = system: 786-0
SK-MEL-28 = system: SK-MEL-28
NCI-H226 = system: NCI-H226
CAKI-1 = system: CAKI-1

SMILES	GI50 (SF-268)	GI50 (HL-60)	GI50 (U-251)	GI50 (NCI-H522)	GI50 (HCT-15)	GI50 (LOX IMVI)	GI50 (KM12)	GI50 (TK-10)	GI50 (NCI-H460)	GI50 (SK-OV-3)	GI50 (COLO 205)	GI50 (CCRF-CEM)	GI50 (IGROV-1)	GI50 (SN12C)	GI50 (786-0)	GI50 (SK-MEL-28)	GI50 (NCI-H226)	GI50 (CAKI-1)
COc1cccc(-c2cc(=O)c3cc(C)c(C)c(C(=O)O)c3o2)c1	> 100 µM (inactive)	> 100 µM (inactive)	> 100 µM (inactive)	> 100 µM (inactive)	> 100 µM	> 100 µM (inactive)	> 100 µM (inactive)	> 100 µM (inactive)	> 100 µM (inactive)	> 100 µM (inactive)	> 100 µM (inactive)	> 100 µM (inactive)	> 100 µM (inactive)	> 100 µM (inactive)	> 100 µM (inactive)	> 100 µM (inactive)		
Nc1c(C(=O)NC23CC4CC(CC(C4)C2)C3)[n+]([O-])c2ccccc2[n+]1[O-]	> 100 µM (inactive)	> 100 µM (inactive)	> 100 µM (inactive)	> 100 µM (inactive)	> 100 µM	> 100 µM (inactive)	> 100 µM (inactive)	> 100 µM (inactive)	> 100 µM (inactive)	> 100 µM (inactive)	> 100 µM (inactive)	> 100 µM (inactive)	> 100 µM (inactive)	> 100 µM (inactive)	> 100 µM (inactive)	> 100 µM (inactive)	> 100 µM (inactive)	> 100 µM (inactive)
C=CCn1cc(C(=O)NC(=O)NCCCCCOC(=O)CCCCCCCCCCC(=O)OCCCCCNC(=O)NC(=O)c2cn(CC=C)c(=O)n(C)c2=O)c(=O)n(C)c1=O	> 100 µM (inactive)	> 100 µM (inactive)	> 100 µM (inactive)	> 100 µM (inactive)	> 100 µM	> 100 µM (inactive)	> 100 µM (inactive)	> 100 µM (inactive)	> 100 µM (inactive)	> 100 µM (inactive)	> 100 µM (inactive)	> 100 µM (inactive)	> 100 µM (inactive)	> 100 µM (inactive)	> 100 µM (inactive)	> 100 µM (inactive)	> 100 µM (inactive)	> 100 µM (inactive)
CCCC1=C(CC)C(C(=O)Nc2c(C)cccc2C)=NC(S)N1 (stereo unspecified)	> 100 µM (inactive)	> 100 µM (inactive)	> 100 µM (inactive)	> 100 µM (inactive)	> 100 µM		> 100 µM (inactive)	> 100 µM (inactive)	> 100 µM (inactive)		> 100 µM (inactive)	> 100 µM (inactive)	> 100 µM (inactive)	> 100 µM (inactive)	> 100 µM (inactive)	> 100 µM (inactive)	> 100 µM (inactive)	> 100 µM (inactive)
CCOC(=O)Cc1nc2ccc3c(c2nc1O)C(=O)c1ccccc1C3=O	38.5 µM (inactive)		48.4 µM (inactive)	16.8 µM (inactive)	25.2 µM	25.5 µM (inactive)	14.7 µM (inactive)	31.7 µM (inactive)	35.4 µM (inactive)	22.8 µM (inactive)	> 100 µM (inactive)	1.95 µM (inactive)	16.9 µM (inactive)	23.7 µM (inactive)	65.6 µM (inactive)	> 100 µM (inactive)	80.7 µM (inactive)	14.6 µM (inactive)
CCc1cc2c(Nc3ccccc3)c3c(nc2s1)CCCC3	76.6 µM (inactive)	6.05 µM (inactive)	22 µM (inactive)		38.8 µM	11.4 µM (inactive)	> 100 µM (inactive)	> 100 µM (inactive)	> 100 µM (inactive)	> 100 µM (inactive)	> 100 µM (inactive)	20.9 µM (inactive)	> 100 µM (inactive)	> 100 µM (inactive)	29.2 µM (inactive)	> 100 µM (inactive)		
CN(C)CC1CCCCCCCCCCCCC(CN(C)C)C1=O (stereo unspecified)	12.7 µM (inactive)		14.3 µM (inactive)		18.7 µM	8.43 µM (inactive)	11.1 µM (inactive)	14.7 µM (inactive)	13.7 µM (inactive)	17.7 µM (inactive)	14 µM (inactive)		17.3 µM (inactive)	15.2 µM (inactive)	10.1 µM (inactive)	13.6 µM (inactive)	11 µM (inactive)	13.3 µM (inactive)
Cc1ccc(/N=C2\SC(=S)N(CCC[N+](C)(C)C)\C2=N/c2ccc(C)cc2)cc1		1.99 µM (inactive)	11.3 µM (inactive)		13.8 µM		24.4 µM (inactive)	18.9 µM (inactive)	18.1 µM (inactive)		10.3 µM (inactive)	19.1 µM (inactive)	10.1 µM (inactive)	11.2 µM (inactive)	14.1 µM (inactive)	7.64 µM (inactive)	21.7 µM (inactive)	
COc1cccc([C@@]2(O)c3c(ccc(O)c3OC)[C@H]2OC)c1OC	33.8 µM (inactive)	19.3 µM (inactive)	51.4 µM (inactive)	16.3 µM (inactive)			24.9 µM (inactive)	31.1 µM (inactive)	47.4 µM (inactive)	31.8 µM (inactive)		45.4 µM (inactive)	40.6 µM (inactive)	62.1 µM (inactive)	14.4 µM (inactive)	38.1 µM (inactive)	43.5 µM (inactive)	22.6 µM (inactive)
O=C1OC(c2ccccc2)=N/C1=C\c1cc(Cl)ccc1Cl	66.2 µM (inactive)	6.64 µM (inactive)	70.8 µM (inactive)	> 100 µM (inactive)	16.4 µM		74.1 µM (inactive)		> 100 µM (inactive)		> 100 µM (inactive)	23.9 µM (inactive)	> 100 µM (inactive)	80.2 µM (inactive)	62.2 µM (inactive)	> 100 µM (inactive)		
COC(=O)CCC(=O)CC1CC(=O)C2CCCN12 (stereo unspecified)	> 100 µM (inactive)	> 100 µM (inactive)	> 100 µM (inactive)	> 100 µM (inactive)		> 100 µM (inactive)	> 100 µM (inactive)	> 100 µM (inactive)	> 100 µM (inactive)	> 100 µM (inactive)	> 100 µM (inactive)	> 100 µM (inactive)	> 100 µM (inactive)	> 100 µM (inactive)	> 100 µM (inactive)	> 100 µM (inactive)	> 100 µM (inactive)	> 100 µM (inactive)
O=C(N/N=C/c1ccccc1O)c1cccc([N+](=O)[O-])c1	15.7 µM (inactive)	3.01 µM (inactive)	26.2 µM (inactive)	32.7 µM (inactive)	6.59 µM	18.4 µM (inactive)	29.6 µM (inactive)	30.9 µM (inactive)	4.68 µM (inactive)	15 µM (inactive)	20.9 µM (inactive)	3.03 µM (inactive)	13.7 µM (inactive)	21.1 µM (inactive)	6.47 µM (inactive)	25 µM (inactive)		
Cc1ccccc1C(=O)Oc1ccc(Oc2ccccc2)cc1	> 100 µM (inactive)	18.2 µM (inactive)	> 100 µM (inactive)		> 100 µM		> 100 µM (inactive)	78.2 µM (inactive)	39.2 µM (inactive)	> 100 µM (inactive)	> 100 µM (inactive)	42.7 µM (inactive)	> 100 µM (inactive)	> 100 µM (inactive)	> 100 µM (inactive)		> 100 µM (inactive)	72.9 µM (inactive)
COc1ccc(-c2cc(=O)c3c(O)c(OC)c(O)c(OC)c3o2)cc1OC	90.2 µM (inactive)	41.3 µM (inactive)	49.9 µM (inactive)	12 µM (inactive)	63.7 µM					80 µM (inactive)	92.3 µM (inactive)	33.6 µM (inactive)	84.3 µM (inactive)	43.4 µM (inactive)	> 100 µM (inactive)	> 100 µM (inactive)	22.2 µM (inactive)	
CCCCCCCCCCCCCCCCCc1nnc(N)o1	> 100 µM (inactive)	> 100 µM (inactive)	> 100 µM (inactive)	> 100 µM (inactive)	> 100 µM	> 100 µM (inactive)	> 100 µM (inactive)	> 100 µM (inactive)	> 100 µM (inactive)	> 100 µM (inactive)	> 100 µM (inactive)		> 100 µM (inactive)	> 100 µM (inactive)	> 100 µM (inactive)	> 100 µM (inactive)	> 100 µM (inactive)	> 100 µM (inactive)
CSc1nc(NC2OCC(OC(C)=O)C(OC(C)=O)C2OC(C)=O)c(/N=C(\C)C(C)=O)c(=O)n1C (stereo unspecified)		> 100 µM (inactive)	> 100 µM (inactive)		> 100 µM	> 100 µM (inactive)	> 100 µM (inactive)	> 100 µM (inactive)	> 100 µM (inactive)	> 100 µM (inactive)	> 100 µM (inactive)	> 100 µM (inactive)	> 100 µM (inactive)	> 100 µM (inactive)	> 100 µM (inactive)		> 100 µM (inactive)	> 100 µM (inactive)
CN1N=C(Nc2ccccc2)Sc2c1cnn(-c1ccccc1)c2=O		85.7 µM (inactive)	> 100 µM (inactive)		> 100 µM	87.3 µM (inactive)	> 100 µM (inactive)	> 100 µM (inactive)	> 100 µM (inactive)	> 100 µM (inactive)	> 100 µM (inactive)	> 100 µM (inactive)	> 100 µM (inactive)	> 100 µM (inactive)	> 100 µM (inactive)			
Cc1ccc(Oc2ccc([N+](=O)[O-])cc2[N+](=O)[O-])c(C)c1		22.9 µM (inactive)	34.8 µM (inactive)		35.1 µM		> 10 µM (inactive)	96.4 µM (inactive)	37.3 µM (inactive)	> 100 µM (inactive)		30.1 µM (inactive)	> 100 µM (inactive)	41.2 µM (inactive)	71.8 µM (inactive)	67.8 µM (inactive)	44.9 µM (inactive)	29.8 µM (inactive)
